Results published in ChEMBL document CHEMBL1201862, “PubChem BioAssay data set” (2004).
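Where inhibition never reached the appropriate level, the endpoint shown equals the highest concentration tested. Otherwise, values were interpolated linearly from a five-concentration, 48-hour dose response in 96-well plates. Abbreviation: GI50, concentration required for 50% inhibition of growth.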 Calls of active or inactive are those of the source. Rule as the data show it: active = GI50 up to about 1.1 µM and inactive = higher.

Assays:
Assay in all cases: NCI-60 cell line screen, 48 h
UO-31 = system: UO-31
U-251 = system: U-251
MDA-N = system: MDA-N
OVCAR-8 = system: OVCAR-8
SK-OV-3 = system: SK-OV-3
COLO 205 = system: COLO 205
HCT-15 = system: HCT-15
OVCAR-3 = system: OVCAR-3
OVCAR-5 = system: OVCAR-5
SNB-75 = system: SNB-75
786-0 = system: 786-0
MOLT-4 = system: MOLT-4
UACC-257 = system: UACC-257
MCF7 = system: MCF7
KM12 = system: KM12
HOP-62 = system: HOP-62
MDA-MB-231 = system: MDA-MB-231
SN12C = system: SN12C
TK-10 = system: TK-10
CAKI-1 = system: CAKI-1
A498 = system: A498
HCT-116 = system: HCT-116
NCI-H460 = system: NCI-H460
BT-549 = system: BT-549
Hs-578T = system: Hs-578T
SK-MEL-5 = system: SK-MEL-5
SK-MEL-28 = system: SK-MEL-28
HL-60 = system: HL-60
MDA-MB-435 = system: MDA-MB-435
PC-3 = system: PC-3
T47D = system: T47D
SK-MEL-2 = system: SK-MEL-2
SF-295 = system: SF-295
IGROV-1 = system: IGROV-1
Malme-3M = system: Malme-3M
SW-620 = system: SW-620
HT-29 = system: HT-29
NCI/ADR-RES = system: NCI/ADR-RES
M14 = system: M14
OVCAR-4 = system: OVCAR-4
NCI-H522 = system: NCI-H522
SF-539 = system: SF-539
HCC 2998 = system: HCC 2998
HOP-92 = system: HOP-92
DU-145 = system: DU-145
K562 = system: K562
NCI-H23 = system: NCI-H23
NCI-H226 = system: NCI-H226
ACHN = system: ACHN
RXF 393 = system: RXF 393
SR = system: SR
EKVX = system: EKVX
SNB-19 = system: SNB-19
A549 = system: A549
LOX IMVI = system: LOX IMVI
RPMI-8226 = system: RPMI-8226
SF-268 = system: SF-268
UACC-62 = system: UACC-62
CCRF-CEM = system: CCRF-CEM

Measured: GI50

Cc1ccc2c(c1)OC1Nc3ccccc3C1=C2O (centres undefined)
25.1 µM: HCT-15
inactive: UO-31 21.2 µM | U-251 20.4 µM | MDA-N 24.7 µM | OVCAR-8 35 µM | SK-OV-3 13.9 µM | COLO 205 14.8 µM | OVCAR-3 3.86 µM | OVCAR-5 32.6 µM | SNB-75 23.2 µM | 786-0 20.1 µM | MOLT-4 32.1 µM | UACC-257 22.2 µM | MCF7 17.2 µM | KM12 26.4 µM | HOP-62 27.4 µM | MDA-MB-231 20.6 µM | SN12C 27.3 µM | TK-10 22.9 µM | CAKI-1 23.2 µM | A498 15.5 µM | HCT-116 24.8 µM | NCI-H460 20.2 µM | BT-549 19.7 µM | Hs-578T 73.8 µM | SK-MEL-5 16.4 µM | SK-MEL-28 53.7 µM | HL-60 16.2 µM | MDA-MB-435 26.2 µM | PC-3 16.3 µM | T47D 20.3 µM | SK-MEL-2 16.9 µM | SF-295 21.6 µM | IGROV-1 29.9 µM | Malme-3M 74.8 µM | SW-620 29.2 µM | HT-29 30 µM | NCI/ADR-RES 20.9 µM | M14 21.5 µM | OVCAR-4 40.4 µM | NCI-H522 28.7 µM | SF-539 20.1 µM | HCC 2998 14.2 µM | HOP-92 38.9 µM | DU-145 25.5 µM | K562 25.9 µM | NCI-H23 23.7 µM | NCI-H226 20.7 µM | ACHN 21.4 µM | RXF 393 20.5 µM | SR 31.2 µM | EKVX 17.4 µM | SNB-19 31.6 µM | A549 23.4 µM | LOX IMVI 23.8 µM | RPMI-8226 28 µM | SF-268 40 µM | UACC-62 15.9 µM

O=C(/C=C1\Sc2ccccc2N=C1CC(=O)c1ccccc1)c1ccccc1
2.65 µM: HCT-15
inactive: UO-31 8.49 µM | U-251 2.01 µM | MDA-N 8.22 µM | OVCAR-8 3.67 µM | SK-OV-3 9.82 µM | COLO 205 10.3 µM | OVCAR-3 10.7 µM | OVCAR-5 12.8 µM | CCRF-CEM 2.36 µM | 786-0 3.51 µM | MOLT-4 1.79 µM | UACC-257 97.3 µM | MCF7 4.19 µM | KM12 4.76 µM | HOP-62 2.32 µM | MDA-MB-231 6 µM | SN12C 3.88 µM | TK-10 5.73 µM | CAKI-1 4.12 µM | A498 31.8 µM | HCT-116 4.9 µM | NCI-H460 3.89 µM | BT-549 8.13 µM | Hs-578T 44.7 µM | SK-MEL-5 2.61 µM | SK-MEL-28 8.89 µM | HL-60 4.89 µM | MDA-MB-435 6.52 µM | PC-3 8.22 µM | T47D 6.98 µM | SK-MEL-2 17.3 µM | SF-295 3.64 µM | IGROV-1 3.61 µM | Malme-3M 3.25 µM | SW-620 3.97 µM | HT-29 8.49 µM | NCI/ADR-RES 4.02 µM | M14 6.14 µM | OVCAR-4 4.99 µM | NCI-H522 15.8 µM | SF-539 13.2 µM | HCC 2998 10.1 µM | HOP-92 3.35 µM | DU-145 6.65 µM | K562 3.79 µM | NCI-H23 35.6 µM | NCI-H226 7.1 µM | ACHN 4.39 µM | RXF 393 26.5 µM | SR 1.4 µM | EKVX 6.17 µM | SNB-19 69.7 µM | A549 5.33 µM | LOX IMVI 3 µM | RPMI-8226 4.65 µM | SF-268 6.4 µM

CCOC(=O)c1ccc(N(C)Cc2cnc3nc(N)nc(N)c3n2)cc1
inactive: UO-31 14.2 µM | U-251 8.99 µM | MDA-N 18.5 µM | OVCAR-8 7.64 µM | SK-OV-3 18.5 µM | COLO 205 > 100 µM | OVCAR-3 14.5 µM | OVCAR-5 17.4 µM | CCRF-CEM 89.9 µM | SNB-75 16.3 µM | 786-0 7.45 µM | MOLT-4 7.91 µM | UACC-257 9.77 µM | MCF7 12.6 µM | KM12 15.8 µM | HOP-62 13 µM | MDA-MB-231 21.7 µM | SN12C 40.4 µM | TK-10 13.8 µM | CAKI-1 14.4 µM | A498 13.1 µM | HCT-116 3.66 µM | NCI-H460 9.79 µM | BT-549 17.3 µM | Hs-578T 12.7 µM | SK-MEL-5 6.1 µM | SK-MEL-28 17.9 µM | HL-60 80.4 µM | MDA-MB-435 8.83 µM | PC-3 5.02 µM | T47D 26.9 µM | SK-MEL-2 21.4 µM | SF-295 10.2 µM | IGROV-1 5.71 µM | Malme-3M 16.6 µM | SW-620 6.3 µM | HT-29 7.98 µM | NCI/ADR-RES 7.8 µM | M14 7.83 µM | SF-539 8.13 µM | DU-145 15.8 µM | K562 2.58 µM | NCI-H23 9.04 µM | NCI-H226 20.1 µM | ACHN 5.05 µM | RXF 393 5.97 µM | SR 6.81 µM | EKVX 24.6 µM | SNB-19 11.6 µM | LOX IMVI 5.5 µM | RPMI-8226 74 µM | SF-268 9.51 µM | UACC-62 5.42 µM
4.85 µM: HCT-15

COC(=O)C1(Cc2ccc3c(c2)CCC3)Cc2ccccc2C1=O (centres undefined)
inactive: UO-31 17.1 µM | U-251 13.4 µM | MDA-N 2.72 µM | OVCAR-8 26.1 µM | SK-OV-3 15.7 µM | COLO 205 9.66 µM | OVCAR-3 14.5 µM | OVCAR-5 26.4 µM | CCRF-CEM 6.97 µM | SNB-75 10.8 µM | 786-0 24.5 µM | MOLT-4 4.45 µM | UACC-257 18.5 µM | MCF7 7.06 µM | KM12 1.55 µM | HOP-62 14.2 µM | MDA-MB-231 27.2 µM | SN12C 27.6 µM | TK-10 12.3 µM | CAKI-1 19.6 µM | A498 18.4 µM | HCT-116 7.8 µM | NCI-H460 28.4 µM | BT-549 11.5 µM | Hs-578T 13.4 µM | SK-MEL-5 4.3 µM | SK-MEL-28 7.14 µM | HL-60 3.12 µM | MDA-MB-435 2.97 µM | PC-3 7.69 µM | T47D 19.3 µM | SK-MEL-2 13.2 µM | SF-295 9.98 µM | IGROV-1 14 µM | Malme-3M 17.5 µM | SW-620 4.49 µM | HT-29 5.46 µM | NCI/ADR-RES 7.06 µM | M14 9.53 µM | OVCAR-4 26.2 µM | NCI-H522 7.66 µM | SF-539 16 µM | HCC 2998 14.6 µM | DU-145 16.6 µM | K562 3.31 µM | NCI-H23 19 µM | NCI-H226 18.2 µM | ACHN 33.3 µM | SR 6.47 µM | EKVX 17.3 µM | SNB-19 20.7 µM | A549 21.1 µM | LOX IMVI 10.5 µM | RPMI-8226 9.91 µM | SF-268 22.1 µM | UACC-62 8.43 µM
6.76 µM: HCT-15

C[S+]([O-])c1ncc2c(n1)-c1ccccc1OC2 (centres undefined)
88.1 µM: HCT-15
inactive: UO-31 22.3 µM | U-251 > 100 µM | MDA-N > 100 µM | OVCAR-8 > 100 µM | SK-OV-3 > 100 µM | COLO 205 68.1 µM | OVCAR-3 56.2 µM | OVCAR-5 > 100 µM | CCRF-CEM > 100 µM | SNB-75 > 100 µM | 786-0 > 100 µM | MOLT-4 > 100 µM | UACC-257 40.3 µM | MCF7 38.5 µM | KM12 > 100 µM | HOP-62 > 100 µM | MDA-MB-231 > 100 µM | SN12C 47 µM | TK-10 45.7 µM | CAKI-1 83.8 µM | HCT-116 > 100 µM | NCI-H460 > 100 µM | BT-549 > 100 µM | Hs-578T 63.4 µM | SK-MEL-5 78.3 µM | SK-MEL-28 > 100 µM | HL-60 36.7 µM | MDA-MB-435 > 100 µM | PC-3 > 100 µM | T47D 35.2 µM | SK-MEL-2 > 100 µM | SF-295 > 100 µM | IGROV-1 49.1 µM | Malme-3M > 100 µM | SW-620 > 100 µM | HT-29 61.5 µM | NCI/ADR-RES > 100 µM | M14 > 100 µM | OVCAR-4 85.9 µM | NCI-H522 > 100 µM | SF-539 > 100 µM | HCC 2998 38.4 µM | HOP-92 49.3 µM | DU-145 38.6 µM | K562 > 100 µM | NCI-H23 > 100 µM | NCI-H226 > 100 µM | ACHN 92.5 µM | RXF 393 > 100 µM | SR > 100 µM | EKVX 70.1 µM | SNB-19 > 100 µM | A549 > 100 µM | LOX IMVI > 100 µM | RPMI-8226 81.8 µM | SF-268 > 100 µM | UACC-62 92.3 µM
